Measurements published in patent publication US20120134948A1, “ANTIMICROBIAL ETHER GUANIDINES” (EVONIK GOLDSCHMIDT GMBH, priority 2009, published 2012).

Tests used:
Format in all cases: cell-based
[1] = test system: Staphylococcus epidermidis; assay: Antimicrobial activity, live microbial count (CFU) after contact in suspension
Procedure: (§1) The test microorganisms were inoculated from a strain culture into an agar-containing Caso medium (Merck, Darmstadt, Germany) and incubated for 24 h to 48 hours at 25 to 37° C., depending on the microorganism. A Caso slanted agar tube was inoculated with this preculture and again incubated under identical conditions.
(§2) To prepare the microorganism suspension to be tested, the microorganisms were washed off with 5 ml of phosphate-buffer saline (PBS, 50 mM potassium phosphate pH6, 100 mM NaCl), made up to 12.5 ml with PBS and resuspended by vortexing. To carry out the following test, this microorganism suspension was diluted to a microbial count of from 2U+5 to 8U+5.
(§3) The products to be tested made as a stock solution; they contained 10 g of ethanol, 0.68 g of macrogol glycerol hydroxystearate 40 (Cremophor® RH40, Omikron, Neckarwestheim, Germany), 1 g of the active substance to be tested and 38.32 g of double-distilled water. This solution was mixed with the microorganism suspension at a ratio of 1:1 in the test and gave an active substance concentration in the test of 1%. If it was intended to test a lower active substance concentration than 1%, the stock solution of the active substance was made up at a correspondingly lower concentration. The substances tested were the ether guanidine of example 1, and double distilled water by way of negative control.
(§4) To carry out the test, 1 ml-Eppendorf cubes were filled with 500 μl of microorganism suspension and with 500 μl stock solution and the contents were mixed carefully. After 20 min, 1 h and 3 h, respectively, 10 μl were removed from the tubes, and the live microbial count (colony-forming units, CFU) were determined by plating out various dilution of these test mixtures on Caso agar.

[2] = test system: Propionibacterium acnes; assay: as above
Procedure: as §1, §2, §3, §4

[3] = test system: Malassezia furfur; assay: as above
Procedure: as §1, §2, §3, §4

[4] = test system: Candida albicans; assay: as above
Procedure: as §1, §2, §3, §4

[5] = test system: Corynebacterium xerosis; assay: as above
Procedure: as §1, §2, §3, §4

[6] = test system: Streptococcus mutans; assay: as above
Procedure: as §1, §2, §3, §4

[7] = test system: test microorganisms; assay: Antimicrobial activity test, overall statement; conditions: overall observation; microbial count in negative controls unchanged
Procedure: as §1, §2
The products to be tested made as a stock solution; they contained 10 g of ethanol, 0.68 g of macrogol glycerol hydroxystearate 40 (Cremophor® RH40, Omikron, Neckarwestheim, Germany), 1 g of the active substance to be tested and 38.32 g of double-distilled water. […]
as §4

[8] = 1% Ex. 1, 0 min (starting count)

C12-15-oxypropylguanidinium chloride [Ex. 1]
CFU/ml 0 min [1, 8]: 1.2E+5 CFU/ml
CFU/ml 20 min ([1]; 1% Ex. 1, 20 min): <2.0E+2 CFU/ml
CFU/ml 60 min ([1]; 1% Ex. 1, 60 min): <2.0E+2 CFU/ml
CFU/ml 180 min ([1]; 1% Ex. 1, 180 min): <2.0E+2 CFU/ml
CFU/ml 0 min [2, 8]: 2.0E+5 CFU/ml
CFU/ml 20 min ([2]; 1% Ex. 1, 20 min): <2.0E+2 CFU/ml
CFU/ml 60 min ([2]; 1% Ex. 1, 60 min): <2.0E+2 CFU/ml
CFU/ml 180 min ([2]; 1% Ex. 1, 180 min): <2.0E+2 CFU/ml
CFU/ml 0 min [3, 8]: 1.4E+5 CFU/ml
CFU/ml 20 min ([3]; 1% Ex. 1, 20 min): <2.0E+2 CFU/ml
CFU/ml 60 min ([3]; 1% Ex. 1, 60 min): <2.0E+2 CFU/ml
CFU/ml 180 min ([3]; 1% Ex. 1, 180 min): <2.0E+2 CFU/ml
CFU/ml 0 min ([4]; 0.01% Ex. 1, 0 min (starting count)): 3.9E+5 CFU/ml
CFU/ml 20 min ([4]; 0.01% Ex. 1, 20 min): 4.7E+5 CFU/ml
CFU/ml 60 min ([4]; 0.01% Ex. 1, 60 min): 2.2E+5 CFU/ml
CFU/ml 180 min ([4]; 0.01% Ex. 1, 180 min): 6.1E+4 CFU/ml
CFU/ml 0 min ([4]; 0.1% Ex. 1, 0 min (starting count)): 3.9E+5 CFU/ml
CFU/ml 20 min ([4]; 0.1% Ex. 1, 20 min): 5.5E+5 CFU/ml
CFU/ml 60 min ([4]; 0.1% Ex. 1, 60 min): 4.3E+4 CFU/ml
CFU/ml 180 min ([4]; 0.1% Ex. 1, 180 min): <2.0E+2 CFU/ml
CFU/ml 0 min [4, 8]: 3.9E+5 CFU/ml
CFU/ml 20 min ([4]; 1% Ex. 1, 20 min): <2.0E+2 CFU/ml
CFU/ml 60 min ([4]; 1% Ex. 1, 60 min): <2.0E+2 CFU/ml
CFU/ml 180 min ([4]; 1% Ex. 1, 180 min): <2.0E+2 CFU/ml
CFU/ml 0 min [5, 8]: 1.7E+5 CFU/ml
CFU/ml 20 min ([5]; 1% Ex. 1, 20 min): <2.0E+2 CFU/ml
CFU/ml 60 min ([5]; 1% Ex. 1, 60 min): <2.0E+2 CFU/ml
CFU/ml 180 min ([5]; 1% Ex. 1, 180 min): <2.0E+2 CFU/ml
CFU/ml 0 min [6, 8]: 3.2E+5 CFU/ml
CFU/ml 20 min ([6]; 1% Ex. 1, 20 min): <2.0E+2 CFU/ml
CFU/ml 60 min ([6]; 1% Ex. 1, 60 min): <2.0E+2 CFU/ml
CFU/ml 180 min ([6]; 1% Ex. 1, 180 min): <2.0E+2 CFU/ml
antimicrobial activity [7]: pronounced antimicrobial activity
